Measured values from patent US20250152659A1, “METHOD FOR PREVENTING OR TREATING PARKINSON'S DISEASE” (Suzhou Mingren Pharmaceutical Biotechnology Co., Ltd., priority 2022, published 2025).
Where a SMILES comes first, the peptide text is derived from it. [ ]: non-standard residue; d: D form. pS = N[C@@H](COP(=O)(O)O)C(=O)O

How the values were obtained:
HT-22 cells = assay: CCK8 cell viability assay, rotenone toxicity; assay type: cell-based, mouse; details: Rot 2.5 μM and JP1 25, 50, 100 μM, 24 and 48 hours, dose-dependent
Protocol: (§1) The example is to evaluate the protective effects of JP1 on the viability of mouse hippocampal neuronal cells HT-22 and human […] cells (SH-SYSY) induced by Rotenone (Rot) (CCK8 assay).
(§2) 1) Cell culture and treatment: The human neuroblastoma cell line SH-SYSY and the mouse hippocampal neuron cell line HT-22 were cultured in DMEM medium containing 100 µg/mL streptomycin, 100 U/mL penicillin, and 10% fetal bovine serum at 37° C. in a 5% CO2 environment. The cells were treated with Rotenone (2.5 μM) and JWA targeting peptide JP1 (0, 25, 50, 100 μM) for 24 and 48 hours, respectively. Model cells were tested for cell viability using CCK8 assay, expression levels of inflammasome 3 (NLRP3) and apoptosis related proteins (PARP1, Cleaved caspase1, 3, 9) using Western Blot, and mitochondrial membrane potential (JC1) and intracellular reactive oxygen species (ROS) levels using immunofluorescence staining.
(§3) Cells were inoculated in a 96-well plate at a density of 8000 cells/well for adherence for 24 hours. The culture medium was discarded and the cells were incubated for 24 and 48 hours with different concentrations of the drug. […] The absorbance value was read by an enzyme immunoassay detector at 450 nm. The cell viability (3 parallel samples in each group, and repeat 3 times) was calculated.

SH-SYSY cells = assay: CCK8 cell viability assay, rotenone toxicity; assay type: cell-based, human; details: Rot 2.5 μM and JP1 25, 50, 100 μM, 24 and 48 hours, dose-dependent
Protocol: as §1, §2, §3

[1] = background statement; cited from earlier work

SMILES: N=C(N)NCCC[C@H](NC(=O)[C@H](Cc1ccccc1)NC(=O)[C@H](CCCNC(=N)N)NC(=O)[C@H](CC(=O)O)NC(=O)[C@H](COP(=O)(O)O)NC(=O)CNC(=O)[C@@H]1CCCN1C(=O)[C@@H](N)Cc1ccccc1)C(=O)NCC(=O)N[C@@H](CC(=O)O)C(=O)O [JP1] (H-FPG[pS]DRFRGD-OH)
- cell viability, protection against cytotoxicity of Rot (HT-22 cells): significant protective effect
- cell viability, protection against cytotoxicity of Rot (SH-SYSY cells): significant protective effect
- crossing the blood-brain barrier [1]: can cross the blood-brain barrier
